system: HepG2 cells; experiment: Test Example 2: inhibition of apolipoprotein B secretion from HepG2 cells, ELISA (also used for metabolites in Test Example 8); assay type: cell-based; conditions: Homo sapiens, 24 hours, apo B in supernatant by ELISA, read-out: Test Example 2 Inhibition of apo B secretion IC50
Method in brief: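 HepG2 cells cultured 24 h, then exposed 24 h to compounds or metabolites in medium with 0.5% DMSO. Secreted apo B in supernatant quantified by sandwich ELISA (HRP, ABTS, 405 nm) against purified human apo B standard; % inhibition vs DMSO group, IC50 derived.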

Row | SMILES | IC50
1 | CCOC(=O)C(COC(=O)Cc1ccc(NC(=O)c2ccccc2-c2ccc(C(F)(F)F)cc2)c(C(=O)N2CCCC2)c1)(C(=O)OCC)c1ccccc1 [Example 2-22] | 0.44 nM
2 | CCNC(=O)C(CCOC(=O)Cc1ccc(NC(=O)c2ccccc2-c2ccc(C(F)(F)F)cc2)c(OCC)c1)(C(=O)NCC)c1ccccc1 [Example 3-8] | 0.38 nM
3 | CCNC(=O)C(COC(=O)Cc1ccc(NC(=O)c2ccccc2-c2ccc(C(F)(F)F)cc2)c(OC(C)C)c1)(C(=O)NCC)c1ccccc1 [Example 3-10] | 0.31 nM
4 | CCNC(=O)C(COC(=O)Cc1ccc(NC(=O)c2ccccc2-c2ccc(C(F)(F)F)cc2)c(C(=O)NC)c1)(C(=O)NCC)c1ccccc1 [Example 2-3] | 2 nM
5 | CCNC(=O)C(COC(=O)Cc1ccc(NC(=O)c2ccccc2-c2ccc(C(F)(F)F)cc2)c(CC)c1)(C(=O)NCC)c1ccccc1 [Example 1-5, {3-Ethyl-4-[(4′-trifluoromethylbiphenyl-2-carbonyl)amino]phenyl}acetic acid 2,2-bisethylcarbamoyl-2-phenylethyl ester] | 0.65 nM
6 | CCNC(=O)C(CCOC(=O)Cc1ccc(NC(=O)c2ccccc2-c2ccc(C(F)(F)F)cc2)c(C(=O)N(C)C)c1)(C(=O)NCC)c1ccccc1 [Example 2-4] | 0.29 nM
7 | COC(=O)C(COC(=O)Cc1ccc(NC(=O)c2ccccc2-c2ccc(C(F)(F)F)cc2)c(C(=O)N(C)C)c1)(C(=O)OC)c1ccccc1 [Example 2-39] | 0.76 nM
8 | CCNC(=O)C(COC(=O)Cc1ccc(NC(=O)c2ccccc2-c2ccc(C(F)(F)F)cc2)cc1)(C(=O)NCC)c1ccccc1 [Example 1, 4-[(4′-Trifluoromethylbiphenyl-2-carbonyl)amino]phenyl-acetic acid 2,2-bisethylcarbamoyl-2-phenylethyl ester] | 5.8 nM
9 | CCNC(=O)C(COC(=O)Cc1ccc(NC(=O)c2ccccc2-c2ccc(C(F)(F)F)cc2)c(OC)c1)(C(=O)NCC)c1ccccc1 [Example 3-3] | 1 nM
10 | CCNC(=O)C(COC(=O)Cc1ccc(NC(=O)c2ccccc2-c2ccc(C(F)(F)F)cc2)c(C(=O)N(C)C)c1)(C(=O)NCC)c1ccccc1 [Example 2, {3-Dimethylcarbamoyl-4-[(4′-trifluoromethylbiphenyl-2-carbonyl)amino]phenyl}acetic acid 2,2-bisethylcarbamoyl-2-phenylethyl ester] | 1.5 nM
11 | CCCNC(=O)C(COC(=O)Cc1ccc(NC(=O)c2ccccc2-c2ccc(C(F)(F)F)cc2)cc1)(C(=O)NCCC)c1ccccc1 [Example 1-35] | 6.9 nM
12 | O=C(Cc1ccc(NC(=O)c2ccccc2-c2ccc(C(F)(F)F)cc2)cc1)OCC(C(=O)NCC(F)(F)F)(C(=O)NCC(F)(F)F)c1ccccc1 [Example 1-12] | 63 nM
13 | CCNC(=O)C(CCOC(=O)Cc1ccc(NC(=O)c2ccccc2-c2ccc(C(F)(F)F)cc2)c(OC)c1)(C(=O)NCC)c1ccccc1 [Example 3-6] | 0.63 nM
14 | CCNC(=O)C(CCCOC(=O)Cc1ccc(NC(=O)c2ccccc2-c2ccc(C(F)(F)F)cc2)c(C(=O)N(C)C)c1)(C(=O)NCC)c1ccccc1 [Example 2-7] | 0.56 nM
15 | CCOC(=O)C(COC(=O)Cc1ccc(OC(=O)c2ccccc2-c2ccc(C(F)(F)F)cc2)cc1)(C(=O)OCC)c1ccccc1 [Example 1-2, 2-Phenyl-2-{2-[4-(4′-trifluoromethylbiphenyl-2-carbonyloxy)phenyl]acetoxymethyl}malonic acid diethyl ester] | 850 nM
16 | CCOC(=O)C(COC(=O)Cc1ccc(NC(=O)c2ccccc2-c2ccc(C(F)(F)F)cc2)c(C(=O)N(C)C)c1)(C(=O)OCC)c1ccccc1 [Example 2-5] | 0.55 nM
17 | O=C(Cc1ccc(NC(=O)c2ccccc2-c2ccc(C(F)(F)F)cc2)cc1)OCC1(C(=O)NCC(F)(F)F)c2ccccc2-c2ccccc21 [Example 1-6] | 5.5 nM
18 | COC(=O)C(COC(=O)Cc1ccc(NC(=O)c2ccccc2-c2ccc(C(F)(F)F)cc2)cc1)(C(=O)OC)c1ccccc1 [Example 1-13] | 170 nM
19 | CCCNC(=O)C(COC(=O)Cc1ccc(NC(=O)c2ccccc2-c2ccc(C(F)(F)F)cc2)c(C(=O)N(C)C)c1)(C(=O)NCCC)c1ccccc1 [Example 2-2] | 1.3 nM

From patent US7625948B2, “Ester compound and medicinal use thereof” (Japan Tobacco Inc., priority 2002, dated 2009)
